pIC50: −log10 of the molar value. Calls of active or inactive are those of the source. The calls are words filed in the database; no cut-off is given here.
Tests used:
[1] = test system: Glycine max; experiment: Inhibition of soybean 15-lipoxygenase assessed as rate of disappearance of dissolved oxygen at 25 uM relative to control; set-up: scale not given: the % may be the effect or the level left
[2] = test system: Glycine max; experiment: Inhibition of soybean 15-lipoxygenase assessed as rate of disappearance of dissolved oxygen at 50 uM relative to control; set-up: scale not given: the % may be the effect or the level left
[3] = test system: Glycine max; experiment: Inhibition of soybean 15-lipoxygenase assessed as rate of disappearance of dissolved oxygen at 6.75 uM relative to control; set-up: scale not given: the % may be the effect or the level left
[4] = test system: Glycine max; experiment: Inhibition of soybean 15-lipoxygenase assessed as rate of disappearance of dissolved oxygen at 12.5 uM relative to control; set-up: scale not given: the % may be the effect or the level left
[5] = test system: Glycine max; experiment: Inhibition of soybean 15-lipoxygenase assessed as rate of disappearance of dissolved oxygen at 100 uM relative to control; set-up: scale not given: the % may be the effect or the level left
[6] = molecular target: T1, Polyunsaturated fatty acid 5-lipoxygenase (Homo sapiens) (UniProt P09917); experiment: Inhibition of human recombinant 5-lipoxygenase assessed as rate of disappearance of dissolved oxygen at 25 uM relative to control; set-up: scale not given: the % may be the effect or the level left
T1 sequence (whole entry): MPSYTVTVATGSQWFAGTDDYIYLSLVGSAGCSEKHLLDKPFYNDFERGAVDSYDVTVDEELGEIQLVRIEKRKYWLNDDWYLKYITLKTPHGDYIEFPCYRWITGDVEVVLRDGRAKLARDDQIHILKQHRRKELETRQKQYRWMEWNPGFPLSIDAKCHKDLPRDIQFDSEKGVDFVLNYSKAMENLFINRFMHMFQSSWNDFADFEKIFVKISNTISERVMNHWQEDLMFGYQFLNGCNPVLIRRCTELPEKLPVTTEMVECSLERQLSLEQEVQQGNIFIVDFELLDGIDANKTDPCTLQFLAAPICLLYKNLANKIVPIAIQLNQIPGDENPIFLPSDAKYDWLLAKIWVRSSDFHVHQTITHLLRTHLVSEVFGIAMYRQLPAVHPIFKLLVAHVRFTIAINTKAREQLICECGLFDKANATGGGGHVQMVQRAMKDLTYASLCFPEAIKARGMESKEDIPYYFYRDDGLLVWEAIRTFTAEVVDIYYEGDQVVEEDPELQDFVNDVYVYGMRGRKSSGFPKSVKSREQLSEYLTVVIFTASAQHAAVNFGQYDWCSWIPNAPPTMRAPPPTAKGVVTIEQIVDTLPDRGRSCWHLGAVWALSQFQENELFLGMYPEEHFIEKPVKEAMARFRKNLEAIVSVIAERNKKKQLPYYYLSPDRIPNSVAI

[7] = molecular target: T1, Polyunsaturated fatty acid 5-lipoxygenase (Homo sapiens); experiment: Inhibition of human recombinant 5-lipoxygenase assessed as rate of disappearance of dissolved oxygen at 50 uM relative to control; set-up: scale not given: the % may be the effect or the level left
[8] = Inhibition of cyclooxygenase assessed as rate of disappearance of dissolved oxygen at 25 uM relative to control; set-up: scale not given: the % may be the effect or the level left
[9] = Inhibition of cyclooxygenase assessed as rate of disappearance of dissolved oxygen at 50 uM relative to control; set-up: scale not given: the % may be the effect or the level left
[10] = (§1) Inhibition of soybean 15-lipoxygenase; set-up: species or system Glycine max
[11] = Inhibition of cyclooxygenase assessed as rate of disappearance of dissolved oxygen at 2.4 uM relative to control; set-up: scale not given: the % may be the effect or the level left
[12] = test system: Glycine max; experiment: as §1

Activity [1] [%]	SMILES	Activity [2] [%]	Activity [6] [%]	also measured
172	C[C@H](CC[C@@H](O)[C@@H](O)[C@@H](O)CO[C@@H]1O[C@H](CO)[C@@H](O)[C@H](O)[C@H]1N)[C@H]1CC[C@]2(C)[C@H]3CC[C@@H]4[C@@]5(C)CCCC(C)(C)[C@@H]5CC[C@@]4(C)[C@]3(C)CC[C@@H]12	188		
	COc1ccc2c(c1)c(CC(=O)O)c(C)n2C(=O)c1ccc(Cl)cc1			Activity [11]: 7%
34	O=C1CCN(c2ccccc2)N1		55	
151	C[C@H](CC[C@@H](O)[C@@H](O)[C@@H](O)CO[C@H]1[C@H](N)[C@@H](O)[C@H](O)[C@@]1(O)CO)[C@H]1CC[C@]2(C)[C@H]3CC[C@@H]4[C@@]5(C)CCCC(C)(C)[C@@H]5CC[C@@]4(C)[C@]3(C)CC[C@@H]12	250		

SMILES	Activity [1] [%]	Activity [2] [%]	Activity [6] [%]	also measured
C[C@H](CC[C@@H](O)[C@@H](O)[C@@H](O)CO)[C@H]1CC[C@]2(C)[C@H]3CC[C@@H]4[C@@]5(C)CCCC(C)(C)[C@@H]5CC[C@@]4(C)[C@]3(C)CC[C@@H]12 [TETRAHYDROXYBACTERIOHOPANE]	15	4	98	Activity [3]: 68%; Activity [4]: 48%; Activity [5]: 11%; Activity [7]: 97%; Activity [8]: 102%; Activity [9]: 103%; pIC50 [10]: 5.00
CC(=O)OC[C@H](OC(C)=O)[C@H](OC(C)=O)[C@@H](CC[C@@H](C)[C@H]1CC[C@]2(C)[C@H]3CC[C@@H]4[C@@]5(C)CCCC(C)(C)[C@@H]5CC[C@@]4(C)[C@]3(C)CC[C@@H]12)OC(C)=O	89	114		Activity [12]: inactive

Reference: ChEMBL document CHEMBL1158316, “Modulation of lipoxygenase activity by bacterial hopanoids” (J Nat Prod, 1997)
